Entries after “also recorded” stand apart in the source; their conditions may differ.
System: bacteria
Assay: Binding of targeting peptides to microorganisms (Table 3)
Settings: preferably 1x PBS; for Target(s): microorganism bound by the targeting peptide, binding in aqueous buffers chosen by peptide solubility; for Target(s) (microorganisms bound by the targeting peptide): peptide binding in aqueous buffers that varied depending on peptide solubility

Substance: PF-334 (QQYLILDRM; Peptide with targeting and/or antimicrobial activity)
- Target(s): S. epidermidis; also recorded: C. difficile

Substance: PF-337 (YMTKKLVEMAERQMAGK; Peptide with targeting and/or antimicrobial activity)
- Target(s): S. epidermidis

Substance: PF-338 (KGTSCPDQLSKAIRQSI; Peptide with targeting and/or antimicrobial activity)
- Target(s): S. mutans

Substance: PF-340 (VKDVLLELFNKIIGA; Peptide with targeting and/or antimicrobial activity)
- Target(s): S. mutans; also recorded: E. coli

Substance: PF-348 (ESASAAEWYNPNMNVKKAICMG; Peptide with targeting and/or antimicrobial activity)
- Target(s): B. subtilis; also recorded: E. coli; also recorded: P. aeruginosa; also recorded: C. albicans; also recorded: E. faecalis; also recorded: C. jejuni

Substance: PF-351 (YLFFKGKKVAEEEATKDEVKR; Peptide with targeting and/or antimicrobial activity)
- Target(s): S. mutans

Substance: PF-352 (RVKKIG; Peptide with targeting and/or antimicrobial activity)
- Target(s): C. jeikeium

Substance: PF-359 (MTVMEDPGSEQRNKIQSPMKGEDFSALFGR; Peptide with targeting and/or antimicrobial activity)
- Target(s): S. epidermidis and B. fragilis and P. aeruginosa and C. albicans and MRSA and E. faecalis and C. jeikeium

Substance: PF-361 (NQVTEGIRLLVE; Peptide with targeting and/or antimicrobial activity)
- Target(s): S. epidermidis; also recorded: E. coli; also recorded: E. faecalis; also recorded: C. jejuni

Substance: PF-364 (LVNGIKI; Peptide with targeting and/or antimicrobial activity)
- Target(s): S. epidermidis; also recorded: B. fragilis; also recorded: P. aeruginosa; also recorded: C. jeikeium; also recorded: C. jejuni

Substance: PF-365 (LYKQKIQLEEELEKLKDDRQ; Peptide with targeting and/or antimicrobial activity)
- Target(s): S. epidermidis; also recorded: B. subtilis; also recorded: B. fragilis; also recorded: P. aeruginosa; also recorded: C. albicans

Substance: PF-367 (TKTPGTFTPGTGIQKTAVPL; Peptide with targeting and/or antimicrobial activity)
- Target(s): B. subtilis

Substance: PF-368 (MLKQTA; Peptide with targeting and/or antimicrobial activity)
- Target(s): C. jeikeium; also recorded: C. jejuni

Substance: PF-371 (TFIYNEF; Peptide with targeting and/or antimicrobial activity)
- Target(s): S. epidermidis; also recorded: B. fragilis; also recorded: C. jejuni

Substance: PF-372 (KKQDKRIEDKYKRMKKGD; Peptide with targeting and/or antimicrobial activity)
- Target(s): C. jeikeium; also recorded: C. jejuni

Substance: PF-384 (HISKERFEAY; Peptide with targeting and/or antimicrobial activity)
- Target(s): E. faecalis; also recorded: C. jeikeium; also recorded: C. jejuni

Substance: PF-388 (ITPLLDEIGKVCIDKISK; Peptide with targeting and/or antimicrobial activity)
- Target(s) (microorganisms bound by the targeting peptide): E. faecalis; also recorded: C. jeikeium; also recorded: C. jejuni

Substance: PF-400 (VIAWKFRNKFENSGV; Peptide with targeting and/or antimicrobial activity)
- Target(s) (microorganisms bound by the targeting peptide): S. epidermidis; also recorded: E. coli; also recorded: S. pneumoniae; also recorded: E. faecalis; also recorded: C. jeikeium

Substance: PF-402 (FIDVLKSKINEFLN; Peptide with targeting and/or antimicrobial activity)
- Target(s) (microorganisms bound by the targeting peptide): S. epidermidis; also recorded: P. aeruginosa; also recorded: E. faecalis; also recorded: C. jejuni

Substance: PF-409 (DLVQSILSEFKKSG; Peptide with targeting and/or antimicrobial activity)
- Target(s) (microorganisms bound by the targeting peptide): S. epidermidis and MRSA and C. jeikeium and C. jejuni

Substance: PF-412 (TSGWLGQLEQ; Peptide with targeting and/or antimicrobial activity)
- Target(s) (microorganisms bound by the targeting peptide): M. luteus; also recorded: E. coli; also recorded: C. albicans; also recorded: C. jeikeium; also recorded: C. jejuni

Substance: PF-435 (MSRWDGHSDKGEAPAGKPPMHGFGLNGENK; Peptide with targeting and/or antimicrobial activity)
- Target(s) (microorganisms bound by the targeting peptide): C. jeikeium

Substance: PF-436 (KKHVLVGKQEKNG; Peptide with targeting and/or antimicrobial activity)
- Target(s) (microorganisms bound by the targeting peptide): C. jeikeium

Substance: PF-438 (QPYFQNQFKKITGYTPLQYRKEKR; Peptide with targeting and/or antimicrobial activity)
- Target(s) (microorganisms bound by the targeting peptide): S. epidermidis; also recorded: E. coli; also recorded: S. pneumoniae; also recorded: C. jeikeium; also recorded: C. jejuni

Substance: PF-441 (TQVHKMARGIDPGPANGIYR; Peptide with targeting and/or antimicrobial activity)
- Target(s) (microorganisms bound by the targeting peptide): C. jeikeium

Substance: PF-463 (MVILVFSLIFIFTDNYLVYQSKSIKEDVMI; Peptide with targeting and/or antimicrobial activity)
- Target(s) (microorganisms bound by the targeting peptide): S. epidermidis; also recorded: E. coli; also recorded: P. aeruginosa; also recorded: C. albicans; also recorded: S. pneumoniae; also recorded: E. faecalis; also recorded: M. smegmatis

Substance: PF-481 (DELYEIMDKVIEEFNKDIEQNNNNGNNEDLTENKIN; Peptide with targeting and/or antimicrobial activity)
- Target(s) (microorganisms bound by the targeting peptide): C. jeikeium

Substance: PF-483 (EDNKDKKDKKDK; Peptide with targeting and/or antimicrobial activity)
- Target(s) (microorganisms bound by the targeting peptide): P. mirabilis; also recorded: C. jeikeium; also recorded: C. jejuni

Substance: PF-486 (MQKEGEEDY; Peptide with targeting and/or antimicrobial activity)
- Target(s) (microorganisms bound by the targeting peptide): S. mutans

Substance: PF-487 (MYKAIAVLAMTIMAFFIFVYPFFIVGLILG; Peptide with targeting and/or antimicrobial activity)
- Target(s) (microorganisms bound by the targeting peptide): S. mutans; also recorded: E. coli

Substance: PF-488 (YPNEQGHHKNNLKNIIIE; Peptide with targeting and/or antimicrobial activity)
- Target(s) (microorganisms bound by the targeting peptide): S. mutans; also recorded: E. coli

Substance: PF-489 (KVDRVSTTITEKIK; Peptide with targeting and/or antimicrobial activity)
- Target(s) (microorganisms bound by the targeting peptide): S. mutans

Substance: PF-490 (RLILVSGNATVQK; Peptide with targeting and/or antimicrobial activity)
- Target(s) (microorganisms bound by the targeting peptide): S. mutans; also recorded: E. coli

Substance: PF-491 (IHQYSSKPDIVGQEAKTVQQINS; Peptide with targeting and/or antimicrobial activity)
- Target(s) (microorganisms bound by the targeting peptide): S. mutans; also recorded: E. coli

Substance: PF-492 (IQIDAASFYSISKSTIK; Peptide with targeting and/or antimicrobial activity)
- Target(s) (microorganisms bound by the targeting peptide): S. mutans; also recorded: B. subtilis; also recorded: E. coli

Substance: PF-493 (PGAFFFCRGRGCWCGIGW; Peptide with targeting and/or antimicrobial activity)
- Target(s) (microorganisms bound by the targeting peptide): S. mutans; also recorded: B. subtilis; also recorded: E. coli

Substance: PF-494 (FTEPLRPLQAKGQIISIKPSTSSS; Peptide with targeting and/or antimicrobial activity)
- Target(s) (microorganisms bound by the targeting peptide): S. mutans

Substance: PF-495 (KGIYKKRTY; Peptide with targeting and/or antimicrobial activity)
- Target(s) (microorganisms bound by the targeting peptide): S. mutans; also recorded: E. coli

Substance: PF-496 (EVTKRLVALAQQQLRG; Peptide with targeting and/or antimicrobial activity)
- Target(s) (microorganisms bound by the targeting peptide): S. mutans; also recorded: E. coli

Substance: PF-498 (MSEEEEVSEKVYNYLRRNEFFEVRKEEFSA; Peptide with targeting and/or antimicrobial activity)
- Target(s) (microorganisms bound by the targeting peptide): S. mutans; also recorded: E. coli

Substance: PF-500 (MGIFKEEKIKFIDCKGEEVILKIKIKDIKK; Peptide with targeting and/or antimicrobial activity)
- Target(s) (microorganisms bound by the targeting peptide): S. mutans; also recorded: E. coli

Substance: PF-501 (GSTAHKSPIGSTNNQWGMKKTPTD; Peptide with targeting and/or antimicrobial activity)
- Target(s) (microorganisms bound by the targeting peptide): S. mutans

Substance: PF-502 (NKGKQMQDQTGKQPIVDNG; Peptide with targeting and/or antimicrobial activity)
- Target(s) (microorganisms bound by the targeting peptide): S. mutans

Substance: PF-503 (VVTLKDIVAVIEDQGYDVQ; Peptide with targeting and/or antimicrobial activity)
- Target(s) (microorganisms bound by the targeting peptide): S. mutans

Substance: PF-504 (ILSVELSTKTSASGS; Peptide with targeting and/or antimicrobial activity)
- Target(s) (microorganisms bound by the targeting peptide): S. mutans; also recorded: E. coli

Substance: PF-505 (GYTKDPGTGI; Peptide with targeting and/or antimicrobial activity)
- Target(s) (microorganisms bound by the targeting peptide): S. mutans

Substance: PF-506 (SGRGFALIVVLFILLIIVGAACIR; Peptide with targeting and/or antimicrobial activity)
- Target(s) (microorganisms bound by the targeting peptide): S. mutans; also recorded: E. coli

Reference: patent US9597407B2, “Targeted antimicrobial moieties” (C3 Jian, Inc., priority 2009, dated 2017)
